Measurements published in patent publication US8183272B2, “Indanyl compounds” (Daiichi Sankyo Company, Limited, priority 2008, dated 2012).

Biological target: T1, human calcium-sensing receptor (CaSR) (Homo sapiens, UniProt P41180)
T1 construct: expressed in transfected cells; host or cells: CHO cells (CHO/hCaSR)
T1 sequence (P41180 20-1078): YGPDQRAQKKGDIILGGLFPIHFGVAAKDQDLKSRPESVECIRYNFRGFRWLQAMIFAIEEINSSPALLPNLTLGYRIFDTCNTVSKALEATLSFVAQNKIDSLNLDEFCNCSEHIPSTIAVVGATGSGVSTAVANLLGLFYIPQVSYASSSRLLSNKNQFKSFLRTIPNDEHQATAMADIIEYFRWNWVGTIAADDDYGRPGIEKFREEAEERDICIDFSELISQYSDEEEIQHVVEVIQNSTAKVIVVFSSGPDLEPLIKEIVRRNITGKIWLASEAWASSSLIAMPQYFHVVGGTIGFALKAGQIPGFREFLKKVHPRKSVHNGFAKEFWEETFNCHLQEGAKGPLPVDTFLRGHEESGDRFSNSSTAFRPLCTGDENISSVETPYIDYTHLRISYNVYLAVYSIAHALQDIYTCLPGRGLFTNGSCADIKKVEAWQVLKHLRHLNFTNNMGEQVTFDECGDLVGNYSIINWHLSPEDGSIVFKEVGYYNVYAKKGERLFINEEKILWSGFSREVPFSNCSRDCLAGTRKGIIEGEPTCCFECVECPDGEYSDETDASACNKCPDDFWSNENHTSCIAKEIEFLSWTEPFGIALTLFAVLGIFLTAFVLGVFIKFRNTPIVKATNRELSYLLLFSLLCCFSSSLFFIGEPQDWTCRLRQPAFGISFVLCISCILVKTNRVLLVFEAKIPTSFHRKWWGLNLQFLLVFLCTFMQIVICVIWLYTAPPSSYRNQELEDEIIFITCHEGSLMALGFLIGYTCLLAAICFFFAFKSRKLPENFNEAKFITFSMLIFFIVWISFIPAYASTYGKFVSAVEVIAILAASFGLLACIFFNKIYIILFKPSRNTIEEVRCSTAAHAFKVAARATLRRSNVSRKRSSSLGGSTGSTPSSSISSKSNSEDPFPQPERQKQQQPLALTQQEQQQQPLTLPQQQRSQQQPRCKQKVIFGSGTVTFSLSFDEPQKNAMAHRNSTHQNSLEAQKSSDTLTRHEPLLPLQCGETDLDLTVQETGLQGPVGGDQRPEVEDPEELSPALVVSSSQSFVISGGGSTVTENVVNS
Experiment: Inhibitory activity on calcium-sensing receptor (CaSR) using intracellular calcium increase as an indicator (FLIPR, CHO/hCaSR)
Format: cell-based
Settings: CHO/hCaSR cells; intracellular Ca increase induced by CaCl2; test compound 1.05 to 10,000 nM
Procedure: Evaluation of inhibitory activity on calcium-sensing receptor (CaSR) using intracellular calcium increase as an indicator
The preparation which is prepared by adding CHO/hCaSR to F12 medium (manufactured by Invitrogen) containing 10% fetal bovine serum to have 2×10^5 cells/mL was applied to a 384-well in an amount of 50 μL/well, and then incubated overnight in a CO2 incubator. The culture supernatant was completely removed, the assay buffer (20 mM HEPES, HBSS (Ca and Mg free) containing 2.5 mM probenecid, pH 7.4) containing Calcium 3 (manufactured by Molecular Devices), i.e., a fluorescent intracellular calcium indicator, was added thereto in an amount of 25 μL/well, and the mixture was maintained for 1 hour in a CO2 incubator. Meanwhile, Calcium 3 was prepared according to the protocol enclosed in FLIPR Calcium 3 Assay Kit (manufactured by Molecular Devices). After maintaining it for 1 hour, a solution in which the test compound is prepared to have 2.1 to 20,000 nM (final concentration of 1.05 to 10,000 nM) by an assay buffer was added thereto in an amount of 25 μL/well, and maintained for 15 minutes in a CO2 incubator. Then, the CaCl2 solution prepared to have […] by using the assay buffer was added in an amount of 25 μL/well, and the resulting intracellular Ca increase (i.e., fluorescence intensity) was measured over time using a fluorescence imaging plate reader (FLIPR, manufactured by Molecular Devices). From the data obtained, the difference between the fluorescence intensity before the addition of CaCl2 solution and the maximum fluorescence intensity after the addition of CaCl2 solution was calculated, and the 50% inhibition concentration (IC50) of the test compound was obtained.

Row | IC50 | SMILES
1 | ≤ 2090 nM | CC(C)Oc1cccc([C@@H](C)OC[C@H](O)CNC(C)(C)CC2Cc3ccccc3C2)c1CCCCC(=O)O [Example 65]
2 | ≤ 2250 nM | CC[C@@H](OC[C@H](O)CNC(C)(C)CC1Cc2ccccc2C1)c1cccc(Cl)c1CCC(=O)O [Example 75]
3 | ≤ 2420 nM | Cc1cccc([C@@H](C)OC[C@H](O)CNC(C)(C)CC2Cc3ccccc3C2)c1CCC(=O)O [Example 42]
4 | ≤ 2420 nM | Cc1ccc(CCC(=O)O)c([C@@H](C)OC[C@H](O)CNC(C)(C)CC2Cc3ccccc3C2)c1 [Example 6, 3-{2-[(1R)-1-{[(2R)-3-{[1-(2,3-Dihydro-1H-inden-2-yl)-2-methylpropan-2-yl]amino}-2-hydroxypropyl]oxy}ethyl]-4-methylphenyl}propanoic acid]
5 | ≤ 2310 nM | C[C@@H](OC[C@H](O)CNC(C)(C)CC1Cc2ccccc2C1)c1cc(F)cc(F)c1CCC(=O)O [Example 27]
6 | ≤ 2250 nM | CC[C@@H](OC[C@H](O)CNC(C)(C)CC1Cc2ccccc2C1)c1cc(F)cc(F)c1CCC(=O)O [Example 80]
7 | ≤ 2210 nM | CCC[C@@H](OC[C@H](O)CNC(C)(C)CC1Cc2ccccc2C1)c1cccc(OC)c1CCC(=O)O [Example 55]
8 | ≤ 2280 nM | Cc1ccc([C@@H](C)OC[C@H](O)CNC(C)(C)CC2Cc3ccccc3C2)c(CCCCC(=O)O)c1 [Example 43]
9 | ≤ 2270 nM | CC[C@@H](OC[C@H](O)CNC(C)(C)CC1Cc2ccccc2C1)c1cccc(OC)c1CCC(=O)O [Example 41]
10 | ≤ 2270 nM | C[C@@H](OC[C@H](O)CNC(C)(C)CC1Cc2ccccc2C1)c1ccccc1CCCOCC(=O)O [Example 85, (3-{2-[(1R)-1-{[(2R)-3-{[1-(2,3-Dihydro-1H-inden-2-yl)-2-methylpropan-2-yl]amino}-2-hydroxypropyl]oxy}ethyl]phenyl}propoxy)acetic acid]
11 | ≤ 2350 nM | CC[C@@H](OC[C@H](O)CNC(C)(C)CC1Cc2ccccc2C1)c1ccc(C)cc1CCC(=O)O [Example 40]
12 | ≤ 2170 nM | C[C@@H](OC[C@H](O)CNC(C)(C)CC1Cc2ccccc2C1)c1ccc(C(F)(F)F)cc1CCC(=O)O [Example 11, 3-{2-[(1R)-1-{[(2R)-3-{[1-(2,3-Dihydro-1H-inden-2-yl)-2-methylpropan-2-yl]amino}-2-hydroxypropyl]oxy}ethyl]-5-(trifluoromethyl)phenyl}propanoic acid]

The remaining lines, values behind:

Row | SMILES | IC50
13 | C[C@@H](OC[C@H](O)CNC(C)(C)CC1Cc2ccccc2C1)c1ccc(F)cc1CCC(=O)O [Example 8, 3-{2-[(1R)-1-{[(2R)-3-{[1-(2,3-Dihydro-1H-inden-2-yl)-2-methylpropan-2-yl]amino}-2-hydroxypropyl]oxy}ethyl]-5-fluorophenyl}propanoic acid] | ≤ 2400 nM
14 | C[C@@H](OC[C@H](O)CNC(C)(C)CC1Cc2ccccc2C1)c1cccc(F)c1CCCCC(=O)O [Example 48] | ≤ 2270 nM
15 | C[C@@H](OC[C@H](O)CNC(C)(C)CC1Cc2ccccc2C1)c1cccc(Cl)c1CCC(=O)O [Example 71] | ≤ 2320 nM
16 | C[C@@H](OC[C@H](O)CNC(C)(C)CC1Cc2ccccc2C1)c1cc(F)ccc1CCCCC(=O)O [Example 45] | ≤ 2270 nM
17 | C[C@@H](OC[C@H](O)CNC(C)(C)CC1Cc2ccccc2C1)c1ccccc1CCCCCCC(=O)O [Example 68] | ≤ 2220 nM
18 | CC(OC[C@H](O)CNC(C)(C)CC1Cc2ccccc2C1)c1c(Cl)cccc1CCC(=O)O (some centres unmarked) [Example 33] | ≤ 2320 nM
19 | C[C@@H](OC[C@H](O)CNC(C)(C)CC1Cc2ccccc2C1)c1cc(F)c(Cl)cc1CCC(=O)O [Example 34] | ≤ 2240 nM
20 | CCOc1cccc([C@@H](C)OC[C@H](O)CNC(C)(C)CC2Cc3ccccc3C2)c1CCCCC(=O)O [Example 63] | ≤ 2150 nM
21 | Cc1cc(-c2ccccc2[C@@H](C)OC[C@H](O)CNC2(CC3Cc4ccccc4C3)CC2)ccc1C(=O)O [Example 12, 2′-[(1R)-1-{[(2R)-3-{[1-(2,3-Dihydro-1H-inden-2-ylmethyl)cyclopropyl]amino}-2-hydroxypropyl]oxy}ethyl]-3-methylbiphenyl-4-carboxylic acid] | ≤ 2200 nM
22 | C[C@@H](OC[C@H](O)CNC(C)(C)CC1Cc2ccccc2C1)c1cc(C(F)(F)F)ccc1CCCCC(=O)O [Example 50] | ≤ 2050 nM
23 | C[C@@H](OC[C@H](O)CNC(C)(C)CC1Cc2ccccc2C1)c1ccc(Cl)cc1CCC(=O)O [Example 69] | ≤ 2320 nM
24 | C[C@@H](OC[C@H](O)CNC(C)(C)CC1Cc2ccccc2C1)c1ccccc1CCC(=O)O [Example 1, 3-{2-[(1R)-1-{[(2R)-3-{[1-(2,3-Dihydro-1H-inden-2-yl)-2-methylpropan-2-yl]amino}-2-hydroxypropyl]oxy}ethyl]phenyl}propanoic acid] | ≤ 2500 nM
25 | Cc1cccc([C@@H](C)OC[C@H](O)CNC(C)(C)CC2Cc3ccccc3C2)c1CCCCC(=O)O [Example 47] | ≤ 2280 nM
26 | C[C@@H](OC[C@H](O)CNC(C)(C)CC1Cc2ccccc2C1)c1ccc(F)cc1CCCCC(=O)O [Example 44] | ≤ 2270 nM
27 | CC[C@@H](OC[C@H](O)CNC(C)(C)CC1Cc2ccccc2C1)c1cc(Cl)ccc1CCC(=O)O [Example 73] | ≤ 2250 nM
28 | Cc1cccc(CCC(=O)O)c1C(C)OC[C@H](O)CNC(C)(C)CC1Cc2ccccc2C1 (some centres unmarked) [Example 32] | ≤ 2420 nM
29 | COc1cccc([C@@H](C)OC[C@H](O)CNC(C)(C)CC2Cc3ccccc3C2)c1CCCCC(=O)O [Example 37] | ≤ 2210 nM
30 | Cc1cc(-c2ccccc2[C@@H](C)OC[C@H](O)CNC(C)(C)CC2Cc3ccccc3C2)ccc1C(=O)O [Example 3, 2′-[(1R)-1-{[(2R)-3-{[1-(2,3-Dihydro-1H-inden-2-yl)-2-methylpropan-2-yl]amino}-2-hydroxypropyl]oxy}ethyl]-3-methylbiphenyl-4-carboxylic acid] | ≤ 2190 nM
31 | CCC[C@@H](OC[C@H](O)CNC(C)(C)CC1Cc2ccccc2C1)c1cccc(Cl)c1CCC(=O)O [Example 78] | ≤ 2190 nM
32 | CCC[C@@H](OC[C@H](O)CNC(C)(C)CC1Cc2ccccc2C1)c1cccc(F)c1CCC(=O)O [Example 53] | ≤ 2270 nM
33 | CCC[C@@H](OC[C@H](O)CNC(C)(C)CC1Cc2ccccc2C1)c1cc(Cl)ccc1CCC(=O)O [Example 76] | ≤ 2190 nM
34 | C[C@@H](OC[C@H](O)CNC(C)(C)CC1Cc2ccccc2C1)c1cc(F)ccc1CCC(=O)O [Example 9, 3-{2-[(1R)-1-{[(2R)-3-{[1-(2,3-Dihydro-1H-inden-2-yl)-2-methylpropan-2-yl]amino}-2-hydroxypropyl]oxy}ethyl]-4-fluorophenyl}propanoic acid] | ≤ 2400 nM
35 | CC(C)(CC1Cc2ccccc2C1)NC[C@@H](O)CO[C@@H](c1ccccc1CCC(=O)O)C1CC1 [Example 29] | ≤ 2360 nM
36 | C[C@@H](OC[C@H](O)CNC(C)(C)CC1Cc2ccccc2C1)c1cc(C(F)(F)F)ccc1CCC(=O)O [Example 49] | ≤ 2170 nM
37 | CCC[C@@H](OC[C@H](O)CNC(C)(C)CC1Cc2ccccc2C1)c1ccccc1CCC(=O)O [Example 21] | ≤ 2350 nM
38 | CC[C@@H](OC[C@H](O)CNC(C)(C)CC1Cc2ccccc2C1)c1cccc(F)c1CCC(=O)O [Example 39] | ≤ 2330 nM
39 | C[C@@H](OC[C@H](O)CNC(C)(C)CC1Cc2ccccc2C1)c1ccc(C#N)cc1CCC(=O)O [Example 25] | ≤ 2370 nM
40 | CCC[C@@H](OC[C@H](O)CNC(C)(C)CC1Cc2ccccc2C1)c1ccc(Cl)cc1CCC(=O)O [Example 77] | ≤ 2190 nM
41 | Cc1cc(CCC(=O)O)c([C@@H](C)OC[C@H](O)CNC(C)(C)CC2Cc3ccccc3C2)cc1F [Example 22] | ≤ 2330 nM
